Test results reported in patent US20110251212A1, “PIPERAZINE DERIVATIVES” (SHIONOGI & CO., LTD., priority 2007, published 2011).

Experiments:
[1] = molecular target: T1, NMDA Receptor (NR1/NR2B Receptor) (Rattus norvegicus, UniProt P35439+Q00960); assay: Experiment of binding to NMDA receptor (NR1/NR2B receptor), [3H]-Ifenprodil competition, rat cerebral cortex membrane; details: [3H]-Ifenprodil 5 nM, GBR-12909 3 μM, ice temperature 120 minutes
T1 construct: this was used as a membrane specimen in an experiment; from tissue; host or cells: rat cerebral cortex membranes
T1 sequence (Q00960 27-1482, other chains not shown): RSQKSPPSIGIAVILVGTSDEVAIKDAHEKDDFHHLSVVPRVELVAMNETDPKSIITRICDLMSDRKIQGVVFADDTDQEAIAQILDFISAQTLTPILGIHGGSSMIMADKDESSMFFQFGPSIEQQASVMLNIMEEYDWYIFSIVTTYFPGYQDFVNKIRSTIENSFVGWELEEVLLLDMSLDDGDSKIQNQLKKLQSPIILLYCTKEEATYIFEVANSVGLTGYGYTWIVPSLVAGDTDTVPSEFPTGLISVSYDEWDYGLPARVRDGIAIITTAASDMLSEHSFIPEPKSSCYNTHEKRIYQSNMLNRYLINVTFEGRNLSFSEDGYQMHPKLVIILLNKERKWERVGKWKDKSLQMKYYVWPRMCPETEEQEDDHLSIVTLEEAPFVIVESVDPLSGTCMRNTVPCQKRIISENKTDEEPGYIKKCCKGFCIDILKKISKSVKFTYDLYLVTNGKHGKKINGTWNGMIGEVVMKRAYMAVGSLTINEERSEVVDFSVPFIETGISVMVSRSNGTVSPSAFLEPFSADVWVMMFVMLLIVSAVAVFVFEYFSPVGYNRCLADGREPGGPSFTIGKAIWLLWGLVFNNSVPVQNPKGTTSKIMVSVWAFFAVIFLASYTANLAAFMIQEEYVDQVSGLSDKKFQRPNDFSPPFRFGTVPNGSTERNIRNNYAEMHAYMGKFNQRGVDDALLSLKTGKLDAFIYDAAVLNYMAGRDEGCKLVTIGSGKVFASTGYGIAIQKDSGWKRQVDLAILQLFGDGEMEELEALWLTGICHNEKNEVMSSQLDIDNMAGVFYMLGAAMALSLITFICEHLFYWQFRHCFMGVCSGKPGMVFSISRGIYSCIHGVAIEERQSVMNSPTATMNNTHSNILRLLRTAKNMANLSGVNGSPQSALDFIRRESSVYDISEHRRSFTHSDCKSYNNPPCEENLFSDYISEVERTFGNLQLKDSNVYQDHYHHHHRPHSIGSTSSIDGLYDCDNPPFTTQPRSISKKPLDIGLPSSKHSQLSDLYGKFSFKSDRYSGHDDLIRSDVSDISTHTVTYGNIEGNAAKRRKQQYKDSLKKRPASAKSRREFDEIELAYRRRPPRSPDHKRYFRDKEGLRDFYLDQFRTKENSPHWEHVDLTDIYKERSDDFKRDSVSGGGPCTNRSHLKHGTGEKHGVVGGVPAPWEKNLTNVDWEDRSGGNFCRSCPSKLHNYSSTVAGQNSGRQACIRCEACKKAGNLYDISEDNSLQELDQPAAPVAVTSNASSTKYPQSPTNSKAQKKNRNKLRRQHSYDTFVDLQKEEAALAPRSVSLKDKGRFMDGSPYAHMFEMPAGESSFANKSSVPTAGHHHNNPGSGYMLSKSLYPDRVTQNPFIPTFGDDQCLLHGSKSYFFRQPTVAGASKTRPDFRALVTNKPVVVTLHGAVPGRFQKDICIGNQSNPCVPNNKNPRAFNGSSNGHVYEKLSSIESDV
Procedure: Using Ifenprodil which is a NR1/NR2B subtype receptor-specific antagonist as a ligand, an experiment of receptor competition with a test compound was performed.
A male Slc:Wistar rat was used as an animal, a decapitated brain was isolated, and cerebral cortex was fractionated. The cerebral cortex was homogenized with a 20-fold amount of an ice-cooled 50 mM Tris/HCl buffer (pH 7.4), and centrifuged at 4° C. and 27,500×g for 10 minutes. The resulting precipitate was suspended in the same buffer, and the suspension was centrifuged again. This procedure was repeated three times, and the resulting precipitate was suspended in a buffer, and stored at −80° C. Immediately before an experiment, the frozen suspension was thawed at room temperature, and centrifuged at 4° C. and 27,500×g for 10 minutes, and the resulting precipitate was suspended in a buffer. The suspension was further diluted 10-fold with a buffer, and this was used as a membrane specimen in an experiment.
In a binding experiment, to 470 μl of the membrane specimen were added 10 μl of different concentrations of a test compound, 10 μl of a labeled ligand [3H]-Ifenprodil and 10 μl of GBR-12909, and this was incubated at an ice temperature for 120 minutes. A concentration of [3H]-Ifenprodil of the labeled ligand was finally 5 nM, and a concentration of GBR-12909 was finally 3 μM. For measuring a total binding amount, DMSO as a solvent was used and, for measuring a non-specific binding amount, 100 μM of Ifenprodil was used. In addition, GBR-12909 was added in order to block binding of [3H]-Ifenprodil to a non-polyamine-sensitive site. After incubation, a bound body and a free body were separated using a Whatman GF/C filter (manufactured by Whatman), and the filter was washed with 2.5 ml of an ice-cooled buffer four times. The filter was immersed in a liquid scintillation (Clear-sol I, manufactured by Nacalai tesque) in a vial bottle, and radioactivity (dpm) was measured with a liquid scintillation counter. From a measured value, a binding inhibition rate (%) was obtained by the following equation, and a dose at which binding is inhibited 50% (IC50) was calculated. A formula of GBR-12909 (Vanoxerine) is shown below.
Binding inhibition rate(%)=100−[(binding amount in presence of test compound−non-specific amount)/(total binding amount−non-specific binding amount)]×100

[2] = molecular target: T2, mouse NMDA receptor (NR1 subunit and NR2B subunit co-expressed in HEK293 cells) (Mus musculus, UniProt P35438+Q01097); assay: Expression of NMDA receptor and measurement of Ca ion flow in amount (HEK293 cells, Fluo-3/AM, FDSS3000); assay type: cell-based; details: Ca ion flow in induced with glutamic acid 20 μM/glycine 2 μM, read-out: Ca2+ 1050
T2 construct: expressed in transfected cells; host or cells: HEK293 cells, transient, pcDNA 3.1 plasmids
T2 sequence (Q01097 27-1482, other chains not shown): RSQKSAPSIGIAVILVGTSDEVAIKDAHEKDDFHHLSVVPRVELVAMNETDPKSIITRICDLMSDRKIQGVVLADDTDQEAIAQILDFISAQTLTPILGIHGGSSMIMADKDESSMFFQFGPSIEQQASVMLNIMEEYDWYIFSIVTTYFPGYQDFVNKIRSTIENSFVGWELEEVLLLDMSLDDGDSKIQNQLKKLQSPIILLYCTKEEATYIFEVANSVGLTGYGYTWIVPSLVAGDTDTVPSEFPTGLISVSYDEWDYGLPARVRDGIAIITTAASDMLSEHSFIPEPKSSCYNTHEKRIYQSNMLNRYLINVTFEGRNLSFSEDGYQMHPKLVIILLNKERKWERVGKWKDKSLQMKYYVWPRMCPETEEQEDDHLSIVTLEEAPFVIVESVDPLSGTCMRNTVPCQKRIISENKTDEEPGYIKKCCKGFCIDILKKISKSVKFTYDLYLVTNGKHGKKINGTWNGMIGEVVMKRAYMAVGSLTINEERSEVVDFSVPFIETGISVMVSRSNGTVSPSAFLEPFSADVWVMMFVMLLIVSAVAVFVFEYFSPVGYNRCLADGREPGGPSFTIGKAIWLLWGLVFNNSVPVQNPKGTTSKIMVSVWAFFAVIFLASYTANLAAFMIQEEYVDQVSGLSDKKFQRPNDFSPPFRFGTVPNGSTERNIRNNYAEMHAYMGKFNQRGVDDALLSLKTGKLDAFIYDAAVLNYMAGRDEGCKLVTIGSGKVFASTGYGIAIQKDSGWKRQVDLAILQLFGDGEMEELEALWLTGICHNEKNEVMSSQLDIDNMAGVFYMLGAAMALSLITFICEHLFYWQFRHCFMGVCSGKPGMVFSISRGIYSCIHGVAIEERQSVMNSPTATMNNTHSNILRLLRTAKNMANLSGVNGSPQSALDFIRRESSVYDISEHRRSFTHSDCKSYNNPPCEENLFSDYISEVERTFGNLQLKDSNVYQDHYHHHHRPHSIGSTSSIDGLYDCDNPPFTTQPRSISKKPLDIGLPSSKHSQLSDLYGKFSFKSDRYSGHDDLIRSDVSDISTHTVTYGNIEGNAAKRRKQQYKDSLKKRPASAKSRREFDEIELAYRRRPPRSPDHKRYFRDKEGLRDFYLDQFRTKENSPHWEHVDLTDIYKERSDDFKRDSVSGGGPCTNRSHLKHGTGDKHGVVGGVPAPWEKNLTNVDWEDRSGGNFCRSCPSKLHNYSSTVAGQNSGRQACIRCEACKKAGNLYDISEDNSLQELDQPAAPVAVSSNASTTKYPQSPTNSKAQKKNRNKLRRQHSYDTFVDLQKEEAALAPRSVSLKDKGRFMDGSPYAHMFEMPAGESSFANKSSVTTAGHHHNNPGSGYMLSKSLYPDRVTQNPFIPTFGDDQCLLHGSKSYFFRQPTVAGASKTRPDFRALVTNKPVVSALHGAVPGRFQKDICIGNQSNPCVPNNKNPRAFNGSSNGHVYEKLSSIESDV
Procedure: Test Example 2 Expression of NMDA receptor and measurement of Ca ion flow in amount
A complementary DNA (cDNA) of a mouse NMDA receptor subunit was transiently introduced into HEK293 cells and, after one day from introduction, change in a glutamic acid/glycine-induced intracellular Ca amount was measured using a Ca ion reactive fluorescent dye.
HEK293 cells were cultured and passaged using a modified Dulbecco's Eagle medium (DMEM, low glucose).
20,000/well of HEK293 cells were seeded on a 96-well plate, a NR1 subunit and a NR2B subunit of a NMDA receptor incorporated into pcDNA 3.1 plasmid were transiently introduced into cells, and co-expression of subunits was performed. An introduction amount of a DNA was such that the NR1 subunit was 0.025 μg, and the NR2B subunit was 0.075 μg per well. For cells after introduction, cell death was inhibited using 50 μM of a NMDA receptor antagonist MK-801.
For adjusting a test compound and washing cells, Krebs Ringer Hepes buffer (KRH, Ca: 5 mM) was used.
One day after introduction, the NMDA receptor antagonist MK-801 was washed off using the KRH buffer, and a Ca ion indicative fluorescent dye Fluo-3/AM was made to be taken into cells. Flow in of a Ca ion was induced with glutamic acid 20 μM/glycine 2 μM. Change in a fluorescence amount due to intracellular Ca ion flow in was measured at excitation 480 nm using a fluorescence imaging system FDSS3000.
From a measured value of the test compound, a Ca ion flow in inhibitory rate (%) was obtained by the following equation, and a dose at which flow in is 50% inhibited (IC50) was calculated.
Ca ion flow in inhibitory rate(%)=100−[(fluorescence amount in presence of test compound−background fluorescence amount)/(total fluorescence amount[…]background fluorescence amount)]×100

## CC(Nc1ccc2[nH]c(=O)oc2c1)C(=O)N1CCN(c2ccc(Cl)c(F)c2)CC1 (stereo not drawn) [Compound I-4]
other
  melting point: 223 to 225 °C

## O=C(CNc1ccc2[nH]c(=O)oc2c1)N1CCN(c2ccc(Cl)c(F)c2)CC1 [Compound I-1]
[1]
  IC50: 0.149 µM
other
  melting point: 136 to 138 °C
[2]
  IC50: 49 nM

## COc1c(F)cc(N2CCN(C(=O)CNc3ccc4[nH]c(=O)oc4c3)CC2)cc1F [Compound I-7]
other
  melting point: 194 to 196 °C
[2]
  IC50: 89 nM

## O=C(CNc1ccc2[nH]c(=O)oc2c1)N1CCN(c2ccc(F)c(Cl)c2)CC1 [Compound I-3]
other
  melting point: 130 to 132 °C

## Cc1cc(N2CCN(C(=O)CNc3ccc4[nH]c(=O)oc4c3)C[C@H]2C)ccc1Cl [Compound I-63]
other
  melting point: 112 to 114 °C

## O=C(CN1CCN(c2ccc(Cl)cc2)CC1=O)Nc1ccc2[nH]c(=O)oc2c1 [Compound I-67]
other
  melting point: 223 to 225 °C

## C[C@@H]1CN(c2ccc(Cl)c(F)c2)CCN1C(=O)CNc1ccc2[nH]c(=O)oc2c1 [Compound I-6]
[1]
  IC50: 0.026 µM
other
  melting point: 224 to 226 °C
[2]
  IC50: 20 nM

## Cc1cc(N2CCN(C(=O)C(=O)Nc3ccc4[nH]c(=O)oc4c3)[C@H](C)C2)ccc1Cl [Compound I-40]
[1]
  IC50: 0.04 µM
other
  melting point: 123 to 124 °C
[2]
  IC50: 14 nM
